PubChem BioAssay AID1996
≈ marks a conversion by molar mass, not a printed value.

Settings: buffer; pH 7.4; 200.0 µM

Structure (SMILES)	solubility kinetic [µg/mL]
CSc1nsc(SCC(=O)NCc2ccccc2)n1	46.7 (≈ 150 µM)
CC1=[N+]([O-])C(C)(C)N(O)C1(C)C	> 25.8
O=C(O)CC(Cc1ccc(Cl)cc1)C(=O)Nc1cc(Cl)ccc1Cl (centres undefined)	42.1 (≈ 109 µM)
O=C(NCCCCc1ccccc1)Nc1ccc(F)cc1F	0.3 (≈ 0.986 µM)
CCCc1c(C)nc2c(OC)cccc2c1SCC(=O)O	42.5 (≈ 139 µM)
CCOC(=O)c1c(NC(=O)CN2CCN(C(=O)c3ccco3)CC2)sc(C(N)=O)c1C	5.6 (≈ 12.5 µM)
CSc1nc(S(=O)(=O)c2ccc(C)cc2)c(Cl)s1	10 (≈ 31.3 µM)
CCn1c(CN(C)c2ccccc2)nc2ccccc21	> 39.8
CCOCCCn1cnc2c3cc(F)ccc3n(C)c2c1=O	10.4 (≈ 34.3 µM)
Cc1c(N2C(=O)CSC2c2ccco2)c(=O)n(-c2ccccc2)n1C (centres undefined)	> 53.3
O=C(c1ccccc1)c1ncc[nH]1	> 25.8
CC(COc1ccccc1)N(CCCl)Cc1ccccc1.Cl (centres undefined)	45.8
COc1ccc(-c2cc(=O)[nH]c(N3CCN(Cc4ccccc4)CC3)n2)cc1	0.8 (≈ 2.13 µM)
COc1cc(NC(=O)CSCc2ccccc2)c(C(=O)O)cc1OC	52.6 (≈ 146 µM)
O=C(NCCc1c[nH]c2ccccc12)c1cc([N+](=O)[O-])cc([N+](=O)[O-])c1	15.2 (≈ 42.9 µM)
Cc1cc(C)cc(NC(=O)Nc2ccccc2N2CCCCC2)c1	25.5 (≈ 78.8 µM)
N#C/C=C(/c1ccc(F)cc1)N1CCOCC1	> 34.8
CC1CN(C(=O)COC(=O)c2ccc(Cl)nc2)CC(C)O1 (centres undefined)	42.3 (≈ 135 µM)
N#Cc1ccc(Cl)cc1NC(=O)CSc1cccc[n+]1[O-]	> 48
COc1ccc(S(=O)(=O)Nc2ccccn2)cc1C	> 41.7
CCCCN1C(=O)c2ccc(C(=O)N(C)CC(=O)Nc3ccc(OCC)c(OCC)c3)cc2C1=O	17.5 (≈ 36.3 µM)
O=C1CN(S(=O)(=O)c2ccccc2Cl)CCN1	> 41.2
CN(C)S(=O)(=O)c1cccc(C(=O)Nc2ccc(C(=O)Nc3cccc(S(N)(=O)=O)c3)cc2)c1	9 (≈ 17.9 µM)
Cl.NCCCCCC(=O)Nc1ccncc1	> 36.6

Structure (SMILES)	solubility kinetic [µg/mL]
O=C1C(Cc2ccc(O)cc2)NC(=S)N1Cc1ccccc1 (centres undefined)	> 46.9
O=C1Nc2ccccc2Sc2ccccc21	1.2 (≈ 5.28 µM)
O=C(OCC(=O)N1CCc2ccccc21)c1ccc(Br)o1	3.7 (≈ 10.6 µM)
COc1ccccc1NC(=O)NCCc1c[nH]c2ccccc12	41.1 (≈ 133 µM)
CN(C)CCCNc1nc(N)c([N+](=O)[O-])c(NCCO)n1	39 (≈ 130 µM)
CCOc1ccc2oc(-c3ccccc3)c(C(N)=O)c2c1	< 0.6
O=C(O)c1cccc(NC(=O)c2ccccc2NC(=O)c2ccco2)c1	> 52.5
CCOC(=O)c1nc(NCc2ccccc2)sc1C	9.5 (≈ 34.4 µM)
CCN(CC(=O)Nc1cccc(OC)c1)C(=O)c1ccncc1	37.2 (≈ 119 µM)
N#C/C(=C\c1ccccc1)C(=O)NCc1ccc(F)cc1	5.3 (≈ 18.9 µM)
CCc1nc2ccccc2n1CC1CC1(Cl)Cl (centres undefined)	34.9 (≈ 130 µM)
Cc1cccc(NC(=O)CSc2nc(C3CC3)nc3ccccc23)c1	0.3 (≈ 0.858 µM)
Brc1nc(-c2ccccc2)nc(-c2ccccc2)c1Br	< 0.4
N/C(=N\OC(=O)/C=C/c1ccccc1Cl)c1cccnc1	14.9 (≈ 49.4 µM)
N#CCCN(C(=O)COC(=O)c1ccc2c(c1)OCCO2)c1ccccc1	52 (≈ 142 µM)
CCOc1ccc(C(=O)NCC(=O)OCC(=O)N2CCCC2)cc1	> 50.2
Cl.c1ccc2c(N3CCNCC3)cccc2c1	> 37.3
CCOC(=O)N1CCN(C(=O)/C=C/c2ccc(C(C)(C)C)cc2)CC1	22.9 (≈ 66.5 µM)
COc1ccccc1CCC(=O)NNC(=O)c1ccncc1	> 44.9
O=[N+]([O-])c1cccnc1Sc1ccc(Br)cc1	1.7 (≈ 5.46 µM)
CC1(C(=O)OCC(=O)NCc2ccc(Cl)cc2)CC1(Cl)Cl (centres undefined)	52.5 (≈ 150 µM)
N#CCc1cc2ccc3cccc4ccc(c1)c2c34	< 0.5
CC(C)NC(=O)c1cc2c(=O)n3ccccc3nc2s1	< 0.2
COc1ccc(NC(=O)CN(c2ccccc2OC)S(=O)(=O)c2cccs2)cc1Cl	2.9 (≈ 6.21 µM)

Structure (SMILES)	solubility kinetic [µg/mL]
C=CCn1c(O)c(C=NCCN2CCOCC2)c(=O)[nH]c1=S	> 48.7
COc1cc(/C=C(\C#N)c2nc3ccccc3[nH]2)ccc1O	4.9 (≈ 16.8 µM)
O=Cc1c(C(=O)O)n(Cc2ccc(F)cc2Cl)c2ccccc12	> 49.8
CCN(CC)C1CCS(=O)(=O)C1.Cl (centres undefined)	> 34.2
COc1ccc(CC(=O)NC(C)CCc2ccccc2)cc1OC (centres undefined)	> 49.1
O=c1[nH]c2ccc(S(=O)(=O)N3CCCC3)cc2[nH]1	> 40.1
O=C(Cc1ccccc1)NC(=S)Nc1ccc(OC(F)F)cc1	11.2 (≈ 33.3 µM)
Nc1ccc(Cl)c(S(=O)(=O)Nc2cccc(Cl)c2)c1	43.4 (≈ 137 µM)
COc1ccc(NC(=O)COC(=O)Cc2coc3cc(OC)ccc23)c(OC)c1	11.8 (≈ 29.5 µM)
CCCCOc1cc(C(=O)NCCN(CC)CC)c2ccccc2n1	> 51.5
O=C(Nc1ccc(F)cc1F)c1ccc2ncsc2c1	27.4 (≈ 94.4 µM)
Cn1ncc(Cl)c1C(=O)Nc1ccc(CN2CCCCC2)cc1	> 49.9
CCOC(=O)c1cc(CC)sc1/N=C/C1C(=O)CCCC1=O	19.5 (≈ 60.7 µM)
Cc1cc(F)ccc1NC(=O)c1cnccn1	29.7 (≈ 128 µM)
COc1ccc(C(=O)Nc2ccc3c(c2)OCCO3)cc1[N+](=O)[O-]	< 0.4
O=C(NC1CCSC1)c1cccc(Cl)c1 (centres undefined)	> 36.3
O=C(COC(=O)c1cccnc1)Nc1cccc2ccccc12	42.1 (≈ 137 µM)
CCOc1ccccc1NC(=O)c1ccc2ccccc2c1	< 0.6
C=CCC(Nc1ccccc1)c1cccc(OC)c1OC (centres undefined)	10.8 (≈ 38.1 µM)
C=CCNc1nc(Cl)nc(NC2CCCCC2)n1	6.9 (≈ 25.8 µM)
COCCCNC(=O)C1c2ccccc2Oc2ccccc21	15.2 (≈ 51.1 µM)
CC(=O)N/C(=N/c1nc(C)cc(C)n1)Nc1cc(C)cc(C)c1	3.8 (≈ 12.2 µM)
CCc1ccc(S(=O)(=O)N2CCN(c3ncccn3)CC2)cc1	1.7 (≈ 5.11 µM)
CCN(Cc1ccncc1)C(=O)CSc1ccc2ccccc2c1	32.6 (≈ 96.9 µM)

Structure (SMILES)	solubility kinetic [µg/mL]
C/C(CC(=O)NC(C)c1ccccc1)=N\NC(N)=S (centres undefined)	> 41.8
CN(CCN1CCOCC1)Cc1nc(-c2ccccc2)no1	> 45.4
Cc1cccc(OCC(=O)NCCNC(=O)c2cccnc2)c1	> 47
COc1cc(CCC(C)NCc2ccccc2)ccc1O (centres undefined)	> 42.8
CCOC(=O)CSC1=NN2CCS(=O)(=O)N=C2S1	> 46.4
CCOC(=O)CC(N)c1cccc([N+](=O)[O-])c1.Cl (centres undefined)	> 41.2
CCOc1ccc(NC(=O)COC(=O)Cn2nc(C)c([N+](=O)[O-])c2C)cc1OCC	> 63.1
Cc1cc(C)c(C(=O)Nc2ccccc2)c(CC(C)(C)C(=O)O)c1	> 48.8
Cc1cccc(NS(=O)(=O)c2ccc3c(c2)NC(=O)CC(=O)N3)c1	> 51.8
Cc1ccc2c(c1)c1c3n2CCN(CC#N)C3CCC1 (centres undefined)	1.1 (≈ 4.15 µM)
O=C(O)Cc1ccc2c(c1)N(S(=O)(=O)c1cccs1)CC(C(=O)O)O2 (centres undefined)	> 57.5
CC(=O)c1cccc(NC(=O)CCn2c(=O)oc3ccccc32)c1	19.7 (≈ 60.7 µM)
CCN(C(=S)NC(=O)Cc1ccc(OC)cc1)c1ccccc1	48.9 (≈ 149 µM)
Cc1cccc(NC(=S)N(CCN(C)C)Cc2cccs2)c1	46.7 (≈ 140 µM)
CCN(CC)S(=O)(=O)c1ccc(-c2csc(C)n2)s1	13.6 (≈ 43 µM)
OC(CNCCNc1ncccc1C(F)(F)F)COc1ccc(F)cc1 (centres undefined)	50.9 (≈ 136 µM)
O=C(NCC1CCCO1)c1ccccc1NS(=O)(=O)c1cc([N+](=O)[O-])ccc1Cl (centres undefined)	> 66
Cc1cc(C)c(C(=O)COC(=O)c2cccnc2Cl)c(C)c1	7.3 (≈ 23 µM)
Cc1nn(C)c(C)c1NC(=O)COc1ccc(F)cc1Br	> 53.4
Cn1c(=O)[nH]c(=O)c2cc(C(=O)c3cc(F)ccc3O)cnc21	8 (≈ 25.4 µM)
CCc1c(C)c(C#N)c2nc3ccccc3n2c1NC	1.3 (≈ 4.92 µM)
CC1CC(=O)N(c2ccc(C(C)C)cc2)C(=O)C1	35 (≈ 143 µM)
O=C(CCNC(=O)c1ccco1)Nc1ccccc1OC(F)F	> 48.6
COc1cccc(CNc2ccc(N3CCCCC3)cc2)c1OC	39.5 (≈ 121 µM)

Structure (SMILES)	solubility kinetic [µg/mL]
CC(=O)Nc1ccc(NS(=O)(=O)c2cc([N+](=O)[O-])ccc2C)cc1	2.6 (≈ 7.44 µM)
O=C(Cn1c(=O)oc2ccccc21)NCCc1ccccc1	44 (≈ 148 µM)
CCOC(=O)c1c(C=O)c2sc(C)cc2n1C	1.5 (≈ 5.97 µM)
COc1cc(CC2C(=O)Nc3ccccc32)cc(C)c1O (centres undefined)	> 42.5
CO/N=C(\C)C(Cc1ccc(Cl)nc1)Cc1ccc(Cl)nc1	> 50.7
O=C(COC(=O)CNC(=O)c1ccc(Cl)cc1)Nc1ccc(Cl)cn1	3.2 (≈ 8.37 µM)
Cc1ccc(C(=O)NC(C)c2ccc(-n3ccnc3)cc2)c(C)c1 (centres undefined)	46 (≈ 144 µM)
Cc1ccc(S(=O)(=O)n2c(C)nc3cc(C)ccc32)cc1	32 (≈ 107 µM)
COc1ccc(S(=O)(=O)N2CC(C)N(C(=O)N(C)C)C2C)cc1 (centres undefined)	> 51.2
COc1ccc(NC(=O)C2C3CCC(O3)C2C(=O)O)cc1OC (centres undefined)	> 48.2
CC1CCCC(NC(=O)CSc2ccc(F)cc2)C1C (centres undefined)	2.8 (≈ 9.48 µM)
N#Cc1ccc(CSc2ncccn2)cc1	> 34.1
COc1ccc(CNC(=O)CN2CCN(S(=O)(=O)c3c(C)c(C)cc(C)c3C)CC2)cc1OC	3.5 (≈ 7.15 µM)
Cc1cc(SCc2ccc(C(F)(F)F)cc2)nc(=O)[nH]1	7.5 (≈ 25 µM)
COc1ccc(-c2noc(CNC(=O)c3ccoc3C)n2)cc1	37.8 (≈ 121 µM)
Cc1ccc(NC(=S)Nc2cccc3cnccc23)cc1	30 (≈ 102 µM)
Cc1cccc(NC(=O)Cn2cc(C(=O)C3CC3)c3ccccc32)c1	< 0.4
C/C(=N/NC(=O)CNC(=O)c1cccnc1)c1ccco1	> 42.9
Cc1ccc(NC(=O)CN(C)Cc2c(O)ccc3ccccc23)cc1	23.7 (≈ 70.9 µM)
O=c1c2ccccc2nc(-c2ccccc2F)n1-c1ccccc1	45.5 (≈ 144 µM)
O=C(NC(=O)c1ccccc1)OCCN1C(=O)c2ccccc2C1=O	> 50.7
Cc1cccc(N2CCN(C(=O)c3ccc4nccnc4c3)CC2C)c1 (centres undefined)	> 52
S=C1SCN(Cc2cccnc2)CN1Cc1ccccc1	38.9 (≈ 123 µM)
